What all share (format): biochemical
In data set [1] the target is T1, MPO (Homo sapiens, UniProt P05164). Kind of data set: Interference by a specific MPO inhibitor (ABAH) added to the formed dye. The settings on record: 0.2 mM H2O2, 47 ng/mL MPO, 100 mM phosphate buffer pH 6.0-7.0; for ΔOD/min (after inhibitor): after 0.1 mM ABAH; for ΔOD/min (before inhibitor): before ABAH; for Interference by Inhibitor: 0.1 mM ABAH added to the formed dye. The procedure: Interference by a specific MPO inhibitor was evaluated by adding 0.1 mM of 4-aminobenzoic acid hydrazide (ABAH) to the formed dye (i.e. the colored product of the substrate oxidation) in the buffer solution. Before the addition of the inhibitor, the reaction mixture contained the chromogenic substrates, as well as 0.2 mM H2O2 (co-substrate) and 47 ng/mL MPO in 100 mM phosphate buffer (pH 6.0-7.0). Interference by the inhibitor was designated as “low” if the absorption changed by ≦0.01 ΔOD/min and “high” if the absorption changed by >0.01 ΔOD/min. The results are summarized in Tables 2 and 6, and the corresponding kinetic traces are shown on FIG. 1.

Data set [2] concerns the target T1, MPO. Kind of data set: Sensitivity of chromogenic substrates: MPO peroxidase activity in buffer solution. To be noted: 0.24 mM H2O2, 94 ng/mL MPO, 100 mM phosphate buffer pH 6.0-7.0; for Sensitivity: class of ΔOD/min; for ΔOD/min: read at the substrate's wavelength. An excerpt:
Substrate sensitivity was designated as “high” if ΔOD/min was above 0.2, “fair” if ΔOD/min was between 0.05 and 0.2, and “poor” if ΔOD/min was below 0.05.

Data set [3] concerns the target T2, MPO (Homo sapiens, UniProt P05164).
T2 construct: In a cuvette, 140 μL of Reagent 1 and 25 μL of plasma sample were mixed; from tissue; host or cells: human lithium heparin plasma
T2 sequence (P05164 49-745): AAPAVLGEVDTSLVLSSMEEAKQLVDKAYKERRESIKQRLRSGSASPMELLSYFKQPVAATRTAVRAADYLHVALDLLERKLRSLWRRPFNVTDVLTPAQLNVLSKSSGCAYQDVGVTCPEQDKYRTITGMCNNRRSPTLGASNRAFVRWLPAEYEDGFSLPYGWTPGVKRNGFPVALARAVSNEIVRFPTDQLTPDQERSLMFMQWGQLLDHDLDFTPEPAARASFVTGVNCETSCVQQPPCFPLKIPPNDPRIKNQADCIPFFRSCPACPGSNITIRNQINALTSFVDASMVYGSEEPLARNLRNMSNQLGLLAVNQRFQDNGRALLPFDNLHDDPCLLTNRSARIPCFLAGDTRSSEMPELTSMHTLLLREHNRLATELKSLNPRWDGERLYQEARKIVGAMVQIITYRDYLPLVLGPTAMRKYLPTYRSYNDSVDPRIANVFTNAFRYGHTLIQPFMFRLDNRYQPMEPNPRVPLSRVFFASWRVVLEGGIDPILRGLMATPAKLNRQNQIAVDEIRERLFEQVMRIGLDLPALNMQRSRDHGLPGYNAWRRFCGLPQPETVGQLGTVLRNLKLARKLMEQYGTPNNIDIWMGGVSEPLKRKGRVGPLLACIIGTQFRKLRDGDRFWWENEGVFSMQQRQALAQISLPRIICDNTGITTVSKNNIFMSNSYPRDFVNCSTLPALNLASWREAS
Description: MPO peroxidase assay in lithium heparin plasma (Hitachi 917): effects of common plasma substances on assay performance. To be noted: nearly neutral pH.
Description: To measure MPO peroxidase activity in blood samples, the following liquid stable, ready-to-use assay reagents were used:
The MPO peroxidase assay is formulated for use with non-hemolyzed lithium heparin plasma. No special handling or pretreatment is required. Plasma samples were collected such that testing could be performed as soon as possible after the specimen collection. Although the specimens may be refrigerated at 2-8° C. for 2-5 days, freezing plasma samples may lead to a decrease in MPO peroxidase activity.
In a cuvette, 140 μL of Reagent 1 and 25 μL of plasma sample were mixed and incubated at 37° C. for 1.5 minutes. Absorbance at 505 nm was read at about 2 minutes after the addition of 60 μL Reagent 2 as A1. The reaction was then incubated for approximately 3 more minutes, and the absorbance was read again as A2. The rate of the total peroxidation reaction was calculated as follows: Rate A=(A2−A1)/t, wherein t≈3 min
At about 5 minutes after the addition of Reagent 2, 46 μL of Reagent 3 was added to the reaction mix. Absorbance at 505 nm was read at about 2 minutes after the addition of Reagent 3 as A3. The reaction was then incubated for approximately 3 more minutes and the absorbance was read again as A4. The rate of the non-MPO peroxidation reaction was calculated as follows: Rate B=(A4−A3)/t, wherein t 3 min […]

In the case of “3,5-Dichloro-2-hydroxybenzenesulfonate, disodium salt/4AA or 3,5-Dichloro-2-hydroxybenzenesulfonic acid/4AA [DHBS/4AA]”, in data set [1], the “ΔOD/min (after inhibitor)” value was 0.002 ΔOD/min and the “ΔOD/min (before inhibitor)” value is on record as 0.089 ΔOD/min.

Regarding 4-Methylcatechol/4AA [4-MC/4AA], the Sensitivity result in data set [2] is reported as “Poor (“poor” if ΔOD/min was below 0.05)”. Moreover, the “Interference by Inhibitor” value in data set [1] is reported as “high numbers of false positives”.

Consider `CC(=O)N1c2ccc(O)cc2Oc2cc(O)ccc21` [Amplex, N-Acetyl-3,7-dihydroxyphenoxazine (Amplex ® UltraRed)], for which, in data set [2], the ΔOD/min is 0.018 ΔOD/min and the Sensitivity result is recorded as “Poor (“poor” if ΔOD/min was below 0.05)”.

As to `CN(C)c1ccc(N(C(=O)NCC(=O)[O-])c2ccc(N(C)C)cc2)cc1.[Na+]` [DA64, N-(Carboxymethylaminocarbonyl)-4,4′-bis(dimethylamino)-diphenylamine sodium salt], in data set [2], the ΔOD/min is recorded as 0.0012 ΔOD/min and the Sensitivity entry is “Poor (“poor” if ΔOD/min was below 0.05)”.

`CN(C)c1ccc2c(c1)Sc1cc(N(C)C)ccc1N2C(=O)NCC(=O)[O-].[Na+]` [DA67, 10-(Carboxymethylaminocarbonyl)-3,7-bis(dimethylamino)-phenothiazine sodium salt]: in data set [2], the ΔOD/min is on record as 0.023 ΔOD/min and the Sensitivity entry was “Poor (“poor” if ΔOD/min was below 0.05)”.

For `Nc1ccc(-c2ccc(N)c(N)c2)cc1N` [DAB, 3,3′-Diaminobenzidine], in data set [2], the ΔOD/min is on record as 0.0093 ΔOD/min and the Sensitivity result is listed as “Poor (“poor” if ΔOD/min was below 0.05)”.

As to `COc1ccccc1O` [Guaiacol, 1-Hydroxy-2-methoxybenzene; 2-Methoxyphenol], in data set [2], the ΔOD/min is recorded as 0.37 ΔOD/min and the Sensitivity result is “High (“high” if ΔOD/min was above 0.2)”.

Consider `O=N[O-].[K+]` [KNO2, Potassium nitrite], for which, in data set [2], the ΔOD/min entry was “No signal” and the Sensitivity entry is recorded as “Poor (“poor” if ΔOD/min was below 0.05)”.

As for `Cc1cc(-c2ccc(NCC(O)CS(=O)(=O)[O-])c(C)c2)ccc1NCC(O)CS(=O)(=O)[O-].[Na+].[Na+]` (centres unmarked) [SAT-3, N,N′-Bis(2-hydroxy-3-sulfopropyl)tolidine, disodium salt,], in data set [2], the ΔOD/min is 0 ΔOD/min and the Sensitivity entry is recorded as “Poor (“poor” if ΔOD/min was below 0.05)”.

Consider `CCCCCCCCCCCCCC[N+](C)(C)Cc1ccccc1.[Cl-]` [TDBA, Tetradecyldimethylbenzylammonium chloride], for which, in data set [2], the ΔOD/min was 0 ΔOD/min and the Sensitivity result is reported as “Poor (“poor” if ΔOD/min was below 0.05)”.

Take `Cc1cc(-c2cc(C)c(N)c(C)c2)cc(C)c1N` [TMB, 3,3′,5,5′-Tetramethylbenzidine]: in data set [2], the ΔOD/min is 0.32 ΔOD/min and the Sensitivity entry is on record as “High (“high” if ΔOD/min was above 0.2)”.

Regarding `COc1cc(-c2ccc(N)c(OC)c2)ccc1N.Cl.Cl` [o-dianisidine, o-Dianisidine dihydrochloride], the Sensitivity result in data set [2] (dihydrochloride) is given as “precipitated out of solution”. Moreover, the “behaviour of the chromogenic substrate in blood samples” value in data set [3] is recorded as “precipitated from blood samples”.

Turning to “N,N-Bis(4-sulfobutyl)-3,5-dimethylaniline, disodium salt/4AA [MADB/4AA]”, in data set [2], the ΔOD/min was 0.04 ΔOD/min and the Sensitivity result is listed as “Poor (“poor” if ΔOD/min was below 0.05)”.

In the case of “N,N-Bis(4-sulfobutyl)-3-methylaniline, disodium salt (TODB)/3-Methyl-2-benzothiazolinone hydrazone (MBTH) [TODB/MBTH]”, the Sensitivity result in data set [2] was “Fair (“fair” if ΔOD/min was between 0.05 and 0.2)”. The “Interference by Inhibitor” value in data set [1] was “high numbers of false positives”.

Regarding “N,N-Bis(4-sulfobutyl)-3-methylaniline, disodium salt/4AA [TODB/4AA]”, the ΔOD/min in data set [2] is on record as 0.07 ΔOD/min. Besides, in data set [1], the “ΔOD/min (after inhibitor)” value is 0.001 ΔOD/min and the “ΔOD/min (before inhibitor)” value is given as 0.077 ΔOD/min.

As to “N,N-dimethylaniline (DMA)/3-Methyl-2-benzothiazolinone hydrazone (MBTH) [DMA/MBTH]”, the Sensitivity entry in data set [2] was “Poor (“poor” if ΔOD/min was below 0.05)”.

Consider “N-(2-Hydroxy-3-sulfopropyl)-3,5-dimethoxyaniline, sodium salt/4AA [HDAOS/4AA]”, for which, in data set [2], the ΔOD/min is listed as 0.03 ΔOD/min and the Sensitivity result is “Poor (“poor” if ΔOD/min was below 0.05)”.

With “N-Ethyl-N-(2-hydroxy-3-sulfopropyl)-3,5-dimethoxyaniline, sodium salt/4AA [DAOS/4AA]”, in data set [2], the ΔOD/min was 0.025 ΔOD/min and the Sensitivity entry is “Poor (“poor” if ΔOD/min was below 0.05)”.

With “N-Ethyl-N-(2-hydroxy-3-sulfopropyl)-3,5-dimethylaniline, sodium salt, monohydrate/4AA [MAOS/4AA]”, in data set [2], the ΔOD/min is recorded as 0.045 ΔOD/min and the Sensitivity entry is reported as “Poor (“poor” if ΔOD/min was below 0.05)”.

Regarding “N-Ethyl-N-(2-hydroxy-3-sulfopropyl)-3-methoxylaniline, sodium salt, dehydrate/4AA [ADOS/4AA]”, in data set [2], the ΔOD/min is recorded as 0.04 ΔOD/min and the Sensitivity entry was “Poor (“poor” if ΔOD/min was below 0.05)”.

Turning to “N-Ethyl-N-(2-hydroxy-3-sulfopropyl)-3-methylaniline, sodium salt, dehydrate/4-Aminoantipyrine (4AA) [TOOS/4AA]”, the ΔOD/min in data set [2] was 0.12 ΔOD/min. In data set [1], the “ΔOD/min (after inhibitor)” value is listed as 0.004 ΔOD/min and the “ΔOD/min (before inhibitor)” value is on record as 0.087 ΔOD/min.

Regarding “N-Ethyl-N-(3-sulfopropyl)-3-methoxyaniline, sodium salt, monohydrate/4AA [ADPS/4AA]”, in data set [2], the ΔOD/min is 0.004 ΔOD/min and the Sensitivity result is “Poor (“poor” if ΔOD/min was below 0.05)”.

Turning to “N-Ethyl-N-(3-sulfopropyl)-3-methylaniline, sodium salt/4AA [TOPS/4AA]”, the ΔOD/min in data set [2] is given as 0.055 ΔOD/min.

In the case of “N-Ethyl-N-(3-sulfopropyl)-aniline, sodium salt (ALPS)/3-Methyl-2-benzothiazolinone hydrazone (MBTH) [ALPS/MBTH]”, the Sensitivity entry in data set [2] was “Fair (“fair” if ΔOD/min was between 0.05 and 0.2)”. In addition, in data set [1], the “Interference by Inhibitor” value is “high numbers of false positives”.

“N-Ethyl-N-(3-sulfopropyl)-aniline, sodium salt/4AA [ALPS/4AA]”: in data set [1], the “ΔOD/min (after inhibitor)” value is −0.003 ΔOD/min and the “ΔOD/min (before inhibitor)” value was 0.086 ΔOD/min.

(Values after patent US20110287468A1, “METHODS AND COMPOSITIONS FOR ASSAYING ENZYMATIC ACTIVITY OF MYELOPEROXIDASE IN BLOOD SAMPLES” (General Atomics, priority 2010, published 2011).)
